Assays:
Type in all cases: physicochemical
[1] = Example 5 reactive solvent extraction, 90% Alamine 336/10% MIBK, 75° C.; details: pH 2 to 3
Protocol: (§1) A variety of analytical methods can be employed to analyze the reactants and products produced using the present methods include HPLC, GC, ion selective electrodes, MS, NMR, etc. HPLC was used to measure glycolic acid and various related products. Briefly, samples are diluted with water (as needed to be within HPLC detection range) and mixed 1:1 with 0.2 M n-propanol in water (HPLC internal standard). HPLC Analytical Method: (BioRad HPX 87H ion exclusion column (BioRad, Hercules, Calif.), 300 mm×7.8 mm; 0.01 N H2SO4 mobile phase; 1.0 mL/min flow at 50° C.; 10 μL injection volume; RI detector and UV 210 nm, 20 min analysis time). HPLC Equipment: (Waters 2695 ‘Alliance’ Separations Module, 2410 Refractive Index Detector, 2487 Dual λ Absorbance Detector and Empower Pro Software (Waters Corp, Milford, Mass.).
Solvent Extraction Using Approximately 90% C8-C10 Trialkylamine in Combination with 10% Methyl Isobutyl Ketone at 75° C.
(§2) Into a 4-mL glass reactor equipped with magnetic stir bar was placed 1 mL of a mixed solvent containing 90% (volume/volume) Alamine® 336 (Cognis) and 10% (volume/volume) methyl isobutyl ketone (MIBK). The pH of an aqueous solution of ammonium glycolate (5 wt % to 40 wt %) was adjusted to pH 2 to 3 with concentrated sulfuric acid, then 1 mL of the resulting aqueous solution was added to the reactor. The resulting mixture was stirred for 30 minutes at 75° C.

[2] = Example 9 reactive solvent extraction, 90% Alamine 336/10% 1-octanol, 75° C.; details: pH 2 to 3
Protocol: as §1
Solvent Extraction Using Approximately 90% C8-C10 Trialkylamine in Combination with 10% 1-Octanol at 75° C.
as §2, with “(Cognis),” for “(Cognis) and”, “1-octanol.” for “methyl isobutyl ketone (MIBK).”

[3] = Example 13 reactive solvent extraction, 90% Alamine 336/10% toluene, 75° C.; details: pH 2 to 3
Protocol: as §1
Solvent Extraction Using Approximately 90% C8-C10 Trialkylamine in Combination with 10% Toluene at 75° C.
as §2, with “(Cognis),” for “(Cognis) and”, “toluene.” for “methyl isobutyl ketone (MIBK).”

[4] = Example 15 reactive solvent extraction, 90% Alamine 336/10% xylenes, 75° C.; details: pH 2 to 3
Protocol: as §1
Solvent Extraction Using Approximately 90% C8-C10 Trialkylamine in Combination with 10% Xylenes at 75° C.
as §2, with “(Cognis),” for “(Cognis) and”, “xylenes (mixed xylene isomers).” for “methyl isobutyl ketone (MIBK).”

[5] = Example 22 back extraction using water from loaded solvent (70% trialkylamine/30% toluene), 140° C.; details: back extraction into deionized water, 70% C8-C10 trialkylamine/30% toluene, 40 psig nitrogen
Protocol: as §1
Back Extraction Using Water from a Loaded Solvent of Approximately 70% C8-C10 Trialkylamine in Combination with 30% Toluene
Into a 85-mL pressure reaction glass tube (pressure reaction vessel, from Andrews Glass Co.) equipped with magnetic stir bar and double dip tubes was placed 10 mL deionized water and 10 mL of the loaded solvent (see Example 16). The vessel was then closed, and the headspace purged with nitrogen. The resulting mixture was stirred for 60 minutes at 140° C. under 40 psig (˜275.8 kPa) nitrogen. The stirring was stopped and the two phases allowed to separate at 140° C., then the organic phase was sampled under pressure through the top dip tube into a Hoke cylinder, and aqueous phases was sampled under pressure through the bottom dip tube into another Hoke cylinder.

[6] = Example 23 back extraction with aqueous glycolic acid from loaded solvent (70% trialkylamine/30% toluene), 140° C.; details: 70% C8-C10 trialkylamine/30% toluene, 40 psig nitrogen
Protocol: as §1
Back Extraction from a Loaded Solvent of Approximately 70% C8-C10 Trialkylamine in Combination with 30% Toluene
The vessel was then closed, and the headspace purged with nitrogen. The resulting mixture was stirred for 60 minutes at 140° C. under 40 psig (˜275.8 kPa) nitrogen. The stirring was stopped and the two phases allowed to separate at 140° C., then the organic phase was sampled under pressure through the top dip tube into a Hoke cylinder, and aqueous phases was sampled under pressure through the bottom dip tube into another Hoke cylinder.

[7] = initial 3.6 wt % glycolic acid in aqueous phase
[8] = initial 8.5 wt % glycolic acid in aqueous phase
[9] = initial 12.1 wt % glycolic acid in aqueous phase
[10] = initial 16.1 wt % glycolic acid in aqueous phase
[11] = initial 20.6 wt % glycolic acid in aqueous phase
[12] = initial 25.1 wt % glycolic acid in aqueous phase
[13] = initial 29.1 wt % glycolic acid in aqueous phase
[14] = initial 32.8 wt % glycolic acid in aqueous phase

Partition coefficient (wt % org./wt % aq.) [1, 7]: 0.75
Partition coefficient (wt % org./wt % aq.) [1, 8]: 0.70
Partition coefficient (wt % org./wt % aq.) [1, 9]: 0.76
Partition coefficient (wt % org./wt % aq.) [1, 10]: 0.73
Partition coefficient (wt % org./wt % aq.) [1, 11]: 0.79
Partition coefficient (wt % org./wt % aq.) [1, 12]: 0.87
Partition coefficient (wt % org./wt % aq.) [1, 13]: 0.84
Partition coefficient (wt % org./wt % aq.) [1, 14]: 0.86
Partition coefficient (wt % org./wt % aq.) [2, 7]: 0.54
Partition coefficient (wt % org./wt % aq.) [2, 8]: 0.56
Partition coefficient (wt % org./wt % aq.) [2, 9]: 0.62
Partition coefficient (wt % org./wt % aq.) [2, 10]: 0.63
Partition coefficient (wt % org./wt % aq.) [2, 11]: 0.73
Partition coefficient (wt % org./wt % aq.) [2, 12]: 0.75
Partition coefficient (wt % org./wt % aq.) [2, 13]: 0.73
Partition coefficient (wt % org./wt % aq.) [2, 14]: 0.70
Partition coefficient (wt % org./wt % aq.) [3, 7]: 0.51
Partition coefficient (wt % org./wt % aq.) [3, 8]: 0.58
Partition coefficient (wt % org./wt % aq.) [3, 9]: 0.67
Partition coefficient (wt % org./wt % aq.) [3, 10]: 0.63
Partition coefficient (wt % org./wt % aq.) [3, 11]: 0.65
Partition coefficient (wt % org./wt % aq.) [3, 12]: 0.73
Partition coefficient (wt % org./wt % aq.) [3, 13]: 0.75
Partition coefficient (wt % org./wt % aq.) [3, 14]: 0.75
Partition coefficient (wt % org./wt % aq.) [4, 7]: 0.55
Partition coefficient (wt % org./wt % aq.) [4, 8]: 0.55
Partition coefficient (wt % org./wt % aq.) [4, 9]: 0.66
Partition coefficient (wt % org./wt % aq.) [4, 10]: 0.64
Partition coefficient (wt % org./wt % aq.) [4, 11]: 0.65
Partition coefficient (wt % org./wt % aq.) [4, 12]: 0.73
Partition coefficient (wt % org./wt % aq.) [4, 13]: 0.75
Partition coefficient (wt % org./wt % aq.) [4, 14]: 0.72
Partition coefficient (wt % org./wt % aq.) ([5]; initial 3.7 wt % glycolic acid in loaded solvent): 0.26
Partition coefficient (wt % org./wt % aq.) ([5]; initial 10.7 wt % glycolic acid in loaded solvent): 0.30
Partition coefficient (wt % org./wt % aq.) ([5]; initial 14.2 wt % glycolic acid in loaded solvent): 0.38
Partition coefficient (wt % org./wt % aq.) ([5]; initial 15.7 wt % glycolic acid in loaded solvent): 0.28
Partition coefficient (wt % org./wt % aq.) ([6]; initial 20.0 wt % glycolic acid in aqueous phase, 14.2 wt % in loaded solvent): 0.44
Partition coefficient (wt % org./wt % aq.) ([6]; initial 40.0 wt % glycolic acid in aqueous phase, 15.7 wt % in loaded solvent): 0.45
SMILES: O=C(O)CO [glycolic acid]
